Data: ChEMBL document CHEMBL1157539, “Thousands of chemical starting points for antimalarial lead identification” (Nature, 2010)

tested on: Plasmodium falciparum; experiment: GSK_TCMDC: Inhibition of Plasmodium falciparum 3D7 in whole erythrocytes, using parasite LDH activity as an index of growth.; format: functional, organism-based; details: Plasmodium falciparum, 3D7

Compared with `Cc1cc(-c2ccc(CNC3CCN(C)CC3)cc2)ccc1S(=O)(=O)NCc1ccccc1`, `CN1CCN(Cc2ccc(-c3cccc(-c4nc5ccccc5[nH]4)c3)cc2)CC1` is 1.6-fold higher in XC50: 851 nM for the first, 1390 nM for the second.

`CC(C)(C)Oc1ccc(C[C@@H]2NC3(C(=O)N(Cc4ccc(Cl)c(Cl)c4)c4ccccc43)C3C(=O)N(c4ccc(Br)cc4)C(=O)C32)cc1` (stereo partly specified) and `O=C(Nc1ccc(C(=O)Oc2ccc3ccccc3c2)cc1)N[C@@H](Cc1ccc(O)cc1)C(=O)NC1CCN(Cc2ccc(O)cc2)C1` (stereo partly specified) are within 1.5-fold of each other in XC50: 1040 nM for the first, 1060 nM for the second.

`CN1CCN(Cc2ccc(-c3ccc4ncnc(Nc5ccc(OCc6ccccc6)cc5)c4c3)o2)CC1` and `CS(=O)(=O)CCNCc1ccc(-c2ccc3c(Nc4ccc(Oc5ccccn5)cc4)ccnc3c2)o1` are within 1.5-fold of each other in XC50: 689 nM for the first, 715 nM for the second.

`O=C(/C=C/c1ccc(Cl)cc1)NCCCCCN1CCC(C(=O)Nc2ccc(Cl)cc2)CC1` and `O=C(/C=C/c1ccc(Cl)c(Cl)c1)NCCCCCN1CCC(NC(=S)Nc2ccc(F)cc2F)CC1` are within 1.5-fold of each other in XC50: 832 nM for the first, 805 nM for the second.

Compared with `CC(C)(C)c1cc(Cn2ccnc2)cc(C(C)(C)C)c1O`, `COc1ccc(CCNCc2cc3c(C(C)(C)C)nn(-c4ccc(Cl)cc4)c3[nH]c2=O)cc1OC` is 7-fold lower in XC50: 1040 nM for the first, 148 nM for the second.

Compared with `CNC(=O)CNC(=O)COc1cccc2ccccc12`, `N=C(N)NCCN(Cc1ccccc1)c1ccc(Cl)cc1` is 4.7-fold lower in XC50: 226 nM for the first, 48 nM for the second.

`O=C(Nc1ccc2c(c1)CCC2)c1ccc(N2CCN(c3ccncc3)CC2)cc1` and `COc1ccc(N2CCN(CCc3ccc(NC(=O)c4ccc([N+](=O)[O-])cc4)cc3)CC2)c(OC)c1` are within 1.5-fold of each other in XC50: 1130 nM for the first, 1170 nM for the second.

Going from `CCN(CC)c1nc(-c2ccccc2)cc(-c2ccccc2)c1C#N` to `C1=CN(Cc2ccccc2)C=CC1=C1C=Nc2ccccc21`, the XC50 rises from 450 nM to 756 nM (1.7-fold).

Compared with `Cc1[nH]c2ccccc2c1C(=O)C(C)Sc1nnc(-c2ccccc2F)o1` (stereo unspecified), `Cc1[nH]c2ccccc2c1C1=CCN(CCCCC2(C)C(=O)Nc3cccc(F)c32)CC1` (stereo unspecified) is 1.9-fold lower in XC50: 691 nM for the first, 364 nM for the second.

Going from `Cc1cc(OCCCNc2nc(NCCc3ccc(O)cc3)nc(N3CCNCC3)n2)c(Cl)c(C)c1Cl` to `Cc1nc2nc(N)nc(N)c2c(C)c1Cc1ccc(O)cc1`, the XC50 falls from 956 nM to 236 nM (4.1-fold).

Compared with `CCNC1=NC2=C(CC(C(C)(C)C)CC2)C2(CCC(C(C)(C)C)CC2)S1` (stereo unspecified), `CCC(C)(C)C1CCc2[nH]c3ccccc3c(=O)c2C1` (stereo unspecified) is 2.2-fold lower in XC50: 834 nM for the first, 384 nM for the second.

First: Cc1[nH]c(C)c(-c2ccc(-c3ccc(Cl)cc3)nc2)c(=O)c1Br
Second: Cc1[nH]c(C)c(-c2ccc(-c3ccc(OC(F)(F)F)cc3)nc2)c(=O)c1Cl
The XC50 of the first is 1.8-fold lower: 113 nM for the first, 201 nM for the second.

`CN(C)c1cccc2c1nc(-c1ccco1)n2CC1CCCN1` (stereo unspecified) and `CN(Cc1cccc(C#N)c1)C1CCN(c2cc(NC(=O)c3cccc(F)c3)ccn2)CC1` are within 1.5-fold of each other in XC50: 970 nM for the first, 926 nM for the second.

Compared with `Cc1cc(N2CC=CCC2)nc(NC(=N)Nc2ccc(Br)cc2)n1`, `Cc1cc(NC(=O)Nc2ccc3nc(C)oc3c2)c2cc(Cl)ccc2n1` is 1.6-fold higher in XC50: 690 nM for the first, 1120 nM for the second.

First: COC(=O)c1ccc(Nc2nccc(Nc3ccc(Oc4ccccc4)cc3)n2)cc1
Second: COc1cccc(NC(=O)Nc2ccc(C)c(-c3ccc(C(=O)Nc4ccncc4)cc3)c2)c1
The XC50 of the first is 2-fold higher: 1020 nM for the first, 520 nM for the second.

Compared with `Cc1cccc2nc(-c3cccc(-c4cccc(CN5CCN(c6ccc(C#N)cn6)CC5)c4)c3)[nH]c12`, `CC(=O)Nc1nc(C(=O)Nc2cccc(-c3cccc(-c4nc5ccccc5[nH]4)c3)c2)cs1` is 6.7-fold lower in XC50: 1160 nM for the first, 172 nM for the second.

Compared with `FC(F)(F)CNc1nc(Nc2ccc3ncccc3c2)nc2[nH]ccc12`, `Cc1cccc(-c2nc(Nc3ccncc3)c3cc(N(C)C)ccc3n2)n1` is 1.7-fold lower in XC50: 1240 nM for the first, 710 nM for the second.

`c1ccc(-c2nc3ccccc3[nH]2)c(Nc2ccnc3cc(-c4nccs4)ccc23)c1` and `CC(CN1CCN(C)CC1)C(=O)Nc1ccc(-c2ccc(-c3nc4ccccc4[nH]3)s2)cc1` (stereo unspecified) are within 1.5-fold of each other in XC50: 740 nM for the first, 638 nM for the second.

Compared with `Cc1ccccc1C1CCN(c2ccc(C(=O)Nc3ccc(F)cc3)cn2)CC1`, `Cc1cccc(-c2ccc(NC(=O)C3CCN(Cc4cccc(O)c4)CC3)cc2)c1` is 5-fold higher in XC50: 194 nM for the first, 975 nM for the second.

Going from `CC(=NNC(=N)N)c1ccc2c(c1)Cc1ccccc1-2` to `Cc1cc(NC(=O)c2cccs2)ccc1OC1CCN(Cc2ccccc2)CC1`, the XC50 falls from 1410 nM to 874 nM (1.6-fold).

`O=S(=O)(c1ccccc1Cl)N1CCCCC(c2ccc(C(F)(F)F)cc2)=N1` and `O=S(=O)(c1cccc(C(F)(F)F)c1)N1CCC(CO)(Cc2cccc(C(F)(F)F)c2)CC1` are within 1.5-fold of each other in XC50: 942 nM for the first, 964 nM for the second.

First: Cc1c[nH]c(-c2cccc(C(=O)NC3CCC(CCN4CCc5ccc(C#N)cc5CC4)CC3)c2)n1 (stereo unspecified)
Second: COc1ccc2nccc([C@@H](O)CN3CCC(NC(=O)c4ccc(OC)c(N)c4)CC3)c2c1
The XC50 of the first is 2.4-fold lower: 301 nM for the first, 715 nM for the second.

Going from `COc1ccc2nccc([C@@H](O)CN3CCC(NCc4ccc5scnc5c4)CC3)c2c1` to `CC[C@H]1CN2CC[C@H]1C[C@H]2[C@H](O)c1cc(-c2ccc(SC)cc2)nc2ccc(OC)cc12`, the XC50 falls from 399 nM to 64.1 nM (6.2-fold).

`Cc1ccc(NS(=O)(=O)c2ccc(-c3ccccc3)cc2)c(Cn2cnc(N3CCCNCC3)cc2=O)c1` and `COc1cccc(-c2ccc(NC(=O)C3CCCN(Cc4cccc(OC)c4O)C3)cc2)c1` (stereo unspecified) are within 1.5-fold of each other in XC50: 859 nM for the first, 847 nM for the second.

Going from `NC1=NC(Cc2ccccc2)N(c2ccc(Cl)cc2)C(N)=N1` (stereo unspecified) to `N=c1n(Cc2ccccc2)c2ccccc2n1CC(O)c1ccc(Cl)cc1` (stereo unspecified), the XC50 rises from 137 nM to 879 nM (6.4-fold).

Going from `CC(C)C[C@@H](/C=N/N1CCNC1=O)NC(=O)[C@H](CC(C)C)NC(=O)c1ccc(OCCN2CCOCC2)cc1` to `CCc1cc(OC)ccc1C1CCN(CCCCNC(=O)c2ccc(NC(=O)c3ccc(Cl)cc3)cc2)CC1`, the XC50 rises from 190 nM to 1070 nM (5.6-fold).

`O=[N+]([O-])c1ccc2ncnc(Nc3ccc(F)c(Cl)c3)c2c1` and `CCOc1cc2ncnc(Nc3ccc(OCc4ccccc4OC)c(OC)c3)c2cc1OCC` are within 1.5-fold of each other in XC50: 709 nM for the first, 879 nM for the second.

`CCOC(=O)c1cc(=O)c2ccc(OCC#N)cc2o1` and `CCN(CC)CCON=Cc1cc(C)c2[nH]c3ccc(OCc4ccccc4)cc3c2c1C` are within 1.5-fold of each other in XC50: 1030 nM for the first, 972 nM for the second.

`CCn1c(Sc2ccc([N+](=O)[O-])c(C#N)c2)nnc1-c1ccc(Cl)cc1` and `CS(=O)(=O)c1ccc(OCCCN(Cc2ccccc2C(F)(F)F)c2ccc(C#N)c(C(F)(F)F)c2)cc1` are within 1.5-fold of each other in XC50: 1000 nM for the first, 1020 nM for the second.

`O=C(Nc1ccc(N2CCN(c3ncccc3C(F)(F)F)CC2)nc1)c1cccs1` and `COc1cc(NC(=O)c2cccs2)c(C(=O)NCc2ccc(C)cc2)cc1OC` are within 1.5-fold of each other in XC50: 1190 nM for the first, 1360 nM for the second.

`O=C(c1cc(C(=O)Nc2ccccc2)c(=O)n(-c2ccccc2)c1)c1cc(Cl)ccc1O` and `O=c1cc(NCCCN(Cc2ccccc2)Cc2ccccc2)[nH]c2ccccc12` are within 1.5-fold of each other in XC50: 390 nM for the first, 577 nM for the second.

`Cc1cc(CNCCCCCCNCc2cccc([N+](=O)[O-])c2)ccc1O` and `CCCN(CC1CC1)c1ncc(-c2ccccc2CNCc2ccccc2O)cn1` are within 1.5-fold of each other in XC50: 723 nM for the first, 496 nM for the second.

First: O=C(NC1CCCc2ccccc21)C1CCCN(C(=O)c2ccc(O)c(-c3ccc(Cl)c(Cl)c3)c2)C1 (stereo unspecified)
Second: O=C(NCc1ccccc1)c1nn(CCCN2CCC(N3CCCC3)CC2)cc1-c1ccc(Cl)c(Cl)c1
The XC50 of the first is 1.7-fold higher: 1140 nM for the first, 675 nM for the second.

Compared with `CC[C@H](NC(=O)c1c(CC2CCN(CC(C)=O)CC2)c(-c2ccccc2)nc2ccccc12)c1ccccc1`, `CC(C)CCNC(=O)C1Cc2c([nH]c3cc(Cl)ccc23)C2(CCN(CCc3ccccc3)CC2)N1` (stereo unspecified) is 1.8-fold higher in XC50: 381 nM for the first, 690 nM for the second.

`CCCCCCCNC(=O)NCC1CCCN(CCCCCNC(=O)/C=C/c2ccc(Cl)c(Cl)c2)C1` (stereo unspecified) and `Cc1cc(N[C@@H](CC(C)C)C(=O)NCc2cccc(F)c2)nc(NCC2CCCCC2)n1` are within 1.5-fold of each other in XC50: 1040 nM for the first, 834 nM for the second.

With `CCCCN(CCCC)CCC(O)C(=Cc1ccc(Cl)cc1Cl)c1ccc(C(F)(F)F)cc1N` (stereo unspecified) the XC50 was 193 nM.
